From PubChem BioAssay (NCI)
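Compound exposure: 48 hours, 5 concentrations, 96-well plates. The concentration for 50% growth inhibition is given as GI50. At the TGI there is no net growth.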

Experiments:
Assay in all cases: DTP human tumour cell line panel, 48 h
[1] = tested on: 786-0 renal
[2] = tested on: A498 renal
[3] = tested on: A549 NSCLC
[4] = tested on: ACHN renal
[5] = tested on: BT-549 breast
[6] = tested on: CAKI-1 renal
[7] = tested on: CCRF-CEM leukemia
[8] = tested on: COLO 205 colon
[9] = tested on: DU-145 prostate
[10] = tested on: EKVX NSCLC
[11] = tested on: HCC-2998 colon
[12] = tested on: HCT-116 colon
[13] = tested on: HCT-15 colon
[14] = tested on: HL-60(TB) leukemia
[15] = tested on: HOP-62 NSCLC
[16] = tested on: HOP-92 NSCLC
[17] = tested on: HS 578T breast
[18] = tested on: HT29 colon
[19] = tested on: K-562 leukemia
[20] = tested on: KM12 colon
[21] = tested on: LOX IMVI melanoma
[22] = tested on: M14 melanoma
[23] = tested on: MALME-3M melanoma
[24] = tested on: MCF7 breast
[25] = tested on: MDA-MB-231 breast
[26] = tested on: MDA-MB-435
[27] = tested on: MOLT-4 leukemia
[28] = tested on: NCI-H226 lung
[29] = tested on: NCI-H23 lung
[30] = tested on: NCI-H460 lung
[31] = tested on: NCI-H522 lung
[32] = tested on: NCI/ADR-RES ovarian
[33] = tested on: OVCAR-3 ovarian
[34] = tested on: OVCAR-4 ovarian
[35] = tested on: OVCAR-5 ovarian
[36] = tested on: OVCAR-8 ovarian
[37] = tested on: PC-3 prostate
[38] = tested on: RPMI-8226 leukemia
[39] = tested on: RXF 393 renal
[40] = tested on: SF-268 CNS
[41] = tested on: SF-295 CNS
[42] = tested on: SF-539 CNS
[43] = tested on: SK-MEL-2 melanoma
[44] = tested on: SK-MEL-28 melanoma
[45] = tested on: SK-MEL-5 melanoma
[46] = tested on: SK-OV-3 ovarian
[47] = tested on: SN12C renal
[48] = tested on: SNB-19 CNS
[49] = tested on: SNB-75 CNS
[50] = tested on: SW-620 colon
[51] = tested on: T-47D breast
[52] = tested on: TK-10 renal
[53] = tested on: U251 CNS
[54] = tested on: UACC-257 melanoma
[55] = tested on: UACC-62 melanoma
[56] = tested on: UO-31 renal

COc1cc2c3c(n(CCCN=[N+]=[N-])c(=O)c2cc1OC)-c1ccc(C#N)cc1C3=O
GI50 [1]: 13.1 µM
TGI [1]: 33.7 µM
GI50 [2]: 18.5 µM
TGI [2]: 58.5 µM
GI50 [3]: > 100 µM
TGI [3]: > 100 µM
GI50 [4]: 3.3 µM
TGI [4]: 13.1 µM
GI50 [5]: 12.9 µM
TGI [5]: 28 µM
GI50 [6]: 32 µM
TGI [6]: > 100 µM
GI50 [7]: > 100 µM
TGI [7]: > 100 µM
GI50 [8]: 92.3 µM
TGI [8]: > 100 µM
GI50 [9]: 34.3 µM
TGI [9]: > 100 µM
GI50 [10]: 28.9 µM
TGI [10]: > 100 µM
GI50 [11]: 44.6 µM
TGI [11]: > 100 µM
GI50 [12]: 24.1 µM
TGI [12]: > 100 µM
GI50 [13]: 57.9 µM
TGI [13]: > 100 µM
GI50 [14]: > 100 µM
TGI [14]: > 100 µM
GI50 [15]: 14.2 µM
TGI [15]: 33.3 µM
GI50 [16]: 21.2 µM
TGI [16]: 79.1 µM
GI50 [17]: 9.67 µM
TGI [17]: 38.9 µM
GI50 [18]: > 100 µM
TGI [18]: > 100 µM
GI50 [19]: > 100 µM
TGI [19]: > 100 µM
GI50 [20]: > 100 µM
TGI [20]: > 100 µM
GI50 [21]: 16.9 µM
TGI [21]: 46 µM
GI50 [22]: 46.7 µM
TGI [22]: > 100 µM
GI50 [23]: 70.8 µM
TGI [23]: > 100 µM
GI50 [24]: > 100 µM
TGI [24]: > 100 µM
GI50 [25]: 2.93 µM
TGI [25]: 16.2 µM
GI50 [26]: > 100 µM
TGI [26]: > 100 µM
GI50 [27]: > 100 µM
TGI [27]: > 100 µM
GI50 [28]: 42.1 µM
TGI [28]: > 100 µM
GI50 [29]: 8.75 µM
TGI [29]: 22 µM
GI50 [30]: 27.7 µM
TGI [30]: > 100 µM
GI50 [31]: 14.5 µM
TGI [31]: > 100 µM
GI50 [32]: 72.4 µM
TGI [32]: > 100 µM
GI50 [33]: 17 µM
TGI [33]: 58.2 µM
GI50 [34]: > 100 µM
TGI [34]: > 100 µM
GI50 [35]: 88.7 µM
TGI [35]: > 100 µM
GI50 [36]: 49.1 µM
TGI [36]: > 100 µM
GI50 [37]: > 100 µM
TGI [37]: > 100 µM
GI50 [38]: > 100 µM
TGI [38]: > 100 µM
GI50 [39]: 12.2 µM
TGI [39]: 30.2 µM
GI50 [40]: 17.7 µM
TGI [40]: > 100 µM
GI50 [41]: 14.1 µM
TGI [41]: 31.5 µM
GI50 [42]: 17.4 µM
TGI [42]: 47.2 µM
GI50 [43]: 16.6 µM
TGI [43]: 86.1 µM
GI50 [44]: > 100 µM
TGI [44]: > 100 µM
GI50 [45]: > 100 µM
TGI [45]: > 100 µM
GI50 [46]: 15.5 µM
TGI [46]: 40.3 µM
GI50 [47]: 15.7 µM
TGI [47]: > 100 µM
GI50 [48]: 37 µM
TGI [48]: > 100 µM
GI50 [49]: 4.27 µM
TGI [49]: 21.4 µM
GI50 [50]: > 100 µM
TGI [50]: > 100 µM
GI50 [51]: > 100 µM
TGI [51]: > 100 µM
GI50 [52]: 17 µM
TGI [52]: 34.9 µM
GI50 [53]: 10.5 µM
TGI [53]: 27.6 µM
GI50 [54]: > 100 µM
TGI [54]: > 100 µM
GI50 [55]: 12.4 µM
TGI [55]: 37.4 µM
GI50 [56]: > 100 µM
TGI [56]: > 100 µM
